The target of assay [1] is Glutamate receptor ionotropic, NMDA 1 (Rattus norvegicus, UniProt P35439).
Assay [2] concerns the target Sodium-dependent noradrenaline transporter (Homo sapiens, UniProt P23975).
The target of assay [3] is T1, Neuropeptide Y receptor type 1 (Homo sapiens, UniProt P25929).
T1 sequence (P25929 whole entry): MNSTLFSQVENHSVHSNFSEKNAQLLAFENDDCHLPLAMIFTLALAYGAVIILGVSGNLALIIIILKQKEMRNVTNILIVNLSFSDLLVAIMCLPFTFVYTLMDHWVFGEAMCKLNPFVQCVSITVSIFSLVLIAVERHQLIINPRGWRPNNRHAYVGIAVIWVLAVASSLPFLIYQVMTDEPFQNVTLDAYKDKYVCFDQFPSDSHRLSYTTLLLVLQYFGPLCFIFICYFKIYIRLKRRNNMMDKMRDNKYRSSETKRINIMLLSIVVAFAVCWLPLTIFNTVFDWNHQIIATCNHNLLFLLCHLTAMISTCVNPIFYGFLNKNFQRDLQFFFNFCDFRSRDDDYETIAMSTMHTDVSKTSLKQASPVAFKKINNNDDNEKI

Assay [4] has as its target T2, Cholecystokinin receptor type A (Homo sapiens, UniProt P32238).
T2 sequence (P32238 whole entry): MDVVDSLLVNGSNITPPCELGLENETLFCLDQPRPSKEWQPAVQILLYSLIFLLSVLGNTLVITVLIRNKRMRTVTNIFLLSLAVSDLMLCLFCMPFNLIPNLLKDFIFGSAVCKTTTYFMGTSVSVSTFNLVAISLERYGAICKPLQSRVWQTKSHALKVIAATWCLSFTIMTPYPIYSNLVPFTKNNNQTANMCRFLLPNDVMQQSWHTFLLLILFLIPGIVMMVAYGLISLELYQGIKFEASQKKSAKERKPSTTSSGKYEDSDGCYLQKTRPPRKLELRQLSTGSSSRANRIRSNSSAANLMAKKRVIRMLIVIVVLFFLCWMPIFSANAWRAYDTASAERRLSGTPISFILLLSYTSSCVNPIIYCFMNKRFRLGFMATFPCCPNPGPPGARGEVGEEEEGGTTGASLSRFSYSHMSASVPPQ

Assay [5] concerns the target T3, Type-1 angiotensin II receptor (Homo sapiens, UniProt P30556).
T3 sequence (P30556 whole entry): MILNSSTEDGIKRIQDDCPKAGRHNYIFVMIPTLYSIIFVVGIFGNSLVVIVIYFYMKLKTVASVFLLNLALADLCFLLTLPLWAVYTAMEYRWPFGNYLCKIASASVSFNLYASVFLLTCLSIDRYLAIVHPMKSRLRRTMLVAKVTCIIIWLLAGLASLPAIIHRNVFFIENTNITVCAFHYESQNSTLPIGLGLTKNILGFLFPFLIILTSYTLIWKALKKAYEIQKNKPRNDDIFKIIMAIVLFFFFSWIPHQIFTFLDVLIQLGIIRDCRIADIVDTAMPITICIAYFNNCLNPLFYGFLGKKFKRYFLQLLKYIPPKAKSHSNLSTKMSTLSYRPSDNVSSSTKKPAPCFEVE

Assay [6] has as its target Cannabinoid receptor 1 (Homo sapiens, UniProt P21554). The assay is classed as functional, cell-based.
The target in assay [7] is Histamine H2 receptor (Homo sapiens, UniProt P25021). The assay is classed as functional, cell-based.
Assay [8] has as its target Vasopressin V2 receptor (Homo sapiens, UniProt P30518).
In assay [9] the target is Vasopressin V1a receptor (Homo sapiens, UniProt P37288).
Assay [10] addresses T4, Alpha-2C adrenergic receptor (Homo sapiens, UniProt P18825).
T4 sequence (P18825 whole entry): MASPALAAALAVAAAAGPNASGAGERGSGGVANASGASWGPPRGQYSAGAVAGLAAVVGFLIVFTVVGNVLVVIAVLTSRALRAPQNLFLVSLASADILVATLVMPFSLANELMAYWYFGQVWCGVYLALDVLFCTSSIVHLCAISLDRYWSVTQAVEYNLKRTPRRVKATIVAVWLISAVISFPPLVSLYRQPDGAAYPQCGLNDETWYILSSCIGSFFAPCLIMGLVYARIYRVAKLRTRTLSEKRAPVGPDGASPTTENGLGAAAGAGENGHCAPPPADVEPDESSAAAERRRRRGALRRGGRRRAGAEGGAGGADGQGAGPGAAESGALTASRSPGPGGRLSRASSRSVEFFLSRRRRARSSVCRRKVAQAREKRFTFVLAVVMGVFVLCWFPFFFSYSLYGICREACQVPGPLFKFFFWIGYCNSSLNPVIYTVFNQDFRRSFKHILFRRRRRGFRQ
In kind it is functional.

Assay [11] has as its target 3',5'-cyclic-AMP phosphodiesterase 4D (Homo sapiens, UniProt Q08499). In kind it is functional.
Assay [12] concerns the target T5, B2 bradykinin receptor (Homo sapiens, UniProt P30411).
T5 sequence (P30411 whole entry): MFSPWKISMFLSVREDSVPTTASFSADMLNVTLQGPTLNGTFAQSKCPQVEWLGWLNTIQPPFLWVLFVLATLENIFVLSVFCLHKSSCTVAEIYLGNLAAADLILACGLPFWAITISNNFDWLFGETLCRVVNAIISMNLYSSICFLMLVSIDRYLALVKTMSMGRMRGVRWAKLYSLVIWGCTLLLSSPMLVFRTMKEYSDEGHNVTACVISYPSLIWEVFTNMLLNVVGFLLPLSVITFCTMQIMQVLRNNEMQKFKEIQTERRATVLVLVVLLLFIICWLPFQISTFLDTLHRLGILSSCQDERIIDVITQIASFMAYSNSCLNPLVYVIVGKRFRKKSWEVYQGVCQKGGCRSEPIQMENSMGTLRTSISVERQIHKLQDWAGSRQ

In assay [13] the target is T6, Adenosine receptor A3 (Homo sapiens, UniProt P0DMS8).
T6 sequence (P0DMS8 whole entry): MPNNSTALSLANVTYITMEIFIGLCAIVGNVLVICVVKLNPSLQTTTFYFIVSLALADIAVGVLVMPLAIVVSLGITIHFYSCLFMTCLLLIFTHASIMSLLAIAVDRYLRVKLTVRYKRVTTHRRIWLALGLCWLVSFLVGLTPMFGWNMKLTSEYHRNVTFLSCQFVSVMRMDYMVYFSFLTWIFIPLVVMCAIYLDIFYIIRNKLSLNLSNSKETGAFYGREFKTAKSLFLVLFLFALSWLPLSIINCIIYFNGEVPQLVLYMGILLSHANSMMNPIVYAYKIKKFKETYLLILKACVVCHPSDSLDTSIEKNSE
Also: assay procedure not described here.

3',5'-cyclic-AMP phosphodiesterase 4D, sequence (Q08499 whole entry): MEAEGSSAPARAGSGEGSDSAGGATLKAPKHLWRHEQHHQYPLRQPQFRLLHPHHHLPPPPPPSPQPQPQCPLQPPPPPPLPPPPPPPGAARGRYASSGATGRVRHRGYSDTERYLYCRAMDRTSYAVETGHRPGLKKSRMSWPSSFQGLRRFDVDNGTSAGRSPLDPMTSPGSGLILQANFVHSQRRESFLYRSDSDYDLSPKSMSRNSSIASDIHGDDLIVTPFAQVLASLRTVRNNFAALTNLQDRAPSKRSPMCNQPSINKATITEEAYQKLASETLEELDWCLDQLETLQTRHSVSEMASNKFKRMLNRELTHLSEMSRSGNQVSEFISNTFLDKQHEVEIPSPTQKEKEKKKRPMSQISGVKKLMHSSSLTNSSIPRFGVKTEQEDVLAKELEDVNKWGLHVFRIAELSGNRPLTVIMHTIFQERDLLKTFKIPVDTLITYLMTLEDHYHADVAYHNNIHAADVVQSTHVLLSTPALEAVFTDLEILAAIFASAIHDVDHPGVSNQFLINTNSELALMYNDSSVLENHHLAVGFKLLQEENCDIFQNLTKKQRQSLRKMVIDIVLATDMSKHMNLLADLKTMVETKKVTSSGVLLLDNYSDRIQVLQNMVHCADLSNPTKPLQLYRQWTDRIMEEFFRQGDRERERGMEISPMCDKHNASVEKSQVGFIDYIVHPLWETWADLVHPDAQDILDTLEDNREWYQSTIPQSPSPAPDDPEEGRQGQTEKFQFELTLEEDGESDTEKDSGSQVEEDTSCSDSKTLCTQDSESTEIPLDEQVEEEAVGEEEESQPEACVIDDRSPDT
Histamine H2 receptor, sequence (P25021 whole entry): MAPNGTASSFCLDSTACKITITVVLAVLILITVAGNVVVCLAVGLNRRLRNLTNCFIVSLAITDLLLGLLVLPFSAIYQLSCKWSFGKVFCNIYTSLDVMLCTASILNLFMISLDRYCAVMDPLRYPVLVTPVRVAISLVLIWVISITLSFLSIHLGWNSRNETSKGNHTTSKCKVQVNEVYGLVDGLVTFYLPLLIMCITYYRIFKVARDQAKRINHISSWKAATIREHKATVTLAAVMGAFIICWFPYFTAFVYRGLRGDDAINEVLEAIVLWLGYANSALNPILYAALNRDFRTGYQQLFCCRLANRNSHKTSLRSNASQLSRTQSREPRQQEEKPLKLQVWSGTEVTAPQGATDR
Sodium-dependent noradrenaline transporter, sequence (P23975 whole entry): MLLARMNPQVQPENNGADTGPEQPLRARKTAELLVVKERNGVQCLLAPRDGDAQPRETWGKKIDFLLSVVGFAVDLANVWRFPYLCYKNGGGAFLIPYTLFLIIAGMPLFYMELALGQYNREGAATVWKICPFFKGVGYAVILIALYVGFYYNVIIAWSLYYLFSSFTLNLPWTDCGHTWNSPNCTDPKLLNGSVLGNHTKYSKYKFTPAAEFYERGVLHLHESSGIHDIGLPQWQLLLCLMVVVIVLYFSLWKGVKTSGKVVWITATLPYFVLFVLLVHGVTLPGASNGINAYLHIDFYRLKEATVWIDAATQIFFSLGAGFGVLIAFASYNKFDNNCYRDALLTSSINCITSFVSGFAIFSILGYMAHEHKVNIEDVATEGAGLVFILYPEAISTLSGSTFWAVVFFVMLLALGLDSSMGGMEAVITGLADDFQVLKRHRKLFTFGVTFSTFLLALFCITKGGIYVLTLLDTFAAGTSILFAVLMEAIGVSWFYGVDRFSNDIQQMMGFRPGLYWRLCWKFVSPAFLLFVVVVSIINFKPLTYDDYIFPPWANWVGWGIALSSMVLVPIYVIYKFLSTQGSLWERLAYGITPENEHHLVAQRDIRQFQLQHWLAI
Vasopressin V2 receptor, sequence (P30518 whole entry): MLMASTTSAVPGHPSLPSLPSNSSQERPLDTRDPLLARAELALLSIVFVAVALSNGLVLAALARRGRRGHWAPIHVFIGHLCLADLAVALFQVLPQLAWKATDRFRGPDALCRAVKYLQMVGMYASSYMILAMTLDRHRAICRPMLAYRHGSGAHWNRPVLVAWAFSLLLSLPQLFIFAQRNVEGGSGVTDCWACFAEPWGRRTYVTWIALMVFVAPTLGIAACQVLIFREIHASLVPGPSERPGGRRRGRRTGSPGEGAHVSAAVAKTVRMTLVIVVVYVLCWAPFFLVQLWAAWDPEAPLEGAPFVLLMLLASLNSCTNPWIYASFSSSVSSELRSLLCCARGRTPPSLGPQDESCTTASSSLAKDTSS
Cannabinoid receptor 1, sequence (P21554 whole entry): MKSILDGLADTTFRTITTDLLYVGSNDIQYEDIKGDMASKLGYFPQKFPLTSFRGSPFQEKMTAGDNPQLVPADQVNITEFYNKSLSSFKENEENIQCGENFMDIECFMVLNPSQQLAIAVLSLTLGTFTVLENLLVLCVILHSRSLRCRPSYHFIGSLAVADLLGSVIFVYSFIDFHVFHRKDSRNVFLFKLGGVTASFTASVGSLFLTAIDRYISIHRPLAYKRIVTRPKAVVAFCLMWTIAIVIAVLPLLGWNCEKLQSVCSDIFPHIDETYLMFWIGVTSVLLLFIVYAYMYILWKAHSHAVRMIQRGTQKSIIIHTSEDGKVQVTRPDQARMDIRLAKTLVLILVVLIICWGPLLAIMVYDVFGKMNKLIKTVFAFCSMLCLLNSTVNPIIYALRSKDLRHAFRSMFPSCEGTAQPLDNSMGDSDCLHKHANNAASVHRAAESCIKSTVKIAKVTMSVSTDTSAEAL
Vasopressin V1a receptor, sequence (P37288 whole entry): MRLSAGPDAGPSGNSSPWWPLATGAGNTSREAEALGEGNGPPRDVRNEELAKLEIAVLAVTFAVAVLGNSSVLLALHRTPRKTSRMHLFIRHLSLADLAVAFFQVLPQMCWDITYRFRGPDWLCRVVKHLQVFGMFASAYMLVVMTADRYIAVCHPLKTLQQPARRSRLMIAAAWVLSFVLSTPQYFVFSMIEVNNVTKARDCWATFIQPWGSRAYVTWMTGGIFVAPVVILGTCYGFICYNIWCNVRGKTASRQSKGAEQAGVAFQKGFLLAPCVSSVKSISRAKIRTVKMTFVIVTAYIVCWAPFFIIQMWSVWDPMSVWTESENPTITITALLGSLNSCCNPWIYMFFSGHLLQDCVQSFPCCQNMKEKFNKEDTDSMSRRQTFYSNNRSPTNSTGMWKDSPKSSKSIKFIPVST

For `CC[C@@H](C(N)=O)N1CCCC1=O`, the AC50 in assay [1], in assay [2], in [3], in assay [4], in assay [5] and in assay [6] was over 30 µM throughout. The AC50 in assay [7], in [8], in [9], in assay [10], in assay [11] and in assay [12] was over 30 µM in each case. The AC50 in [13] is over 30 µM.
Consider `CCC(CC)(CC(=O)Nc1cccc(/C=C/c2nc(C3CCC3)cs2)c1)C(=O)O`, for which the AC50 in [2], in assay [3], in assay [4], in assay [5], in [8] and in assay [9] was over 30 µM in each case. Moreover, the AC50 is over 30 µM in [12] and 13.9 µM in assay [13].
As to `CCCC1O[C@@H]2C[C@H]3[C@@H]4CCC5=CC(=O)C=C[C@]5(C)[C@H]4[C@@H](O)C[C@]3(C)[C@]2(C(=O)CO)O1` (some centres not stated) [BUDESONIDE], the AC50 in assay [1], in assay [2], in assay [3], in [4], in assay [5] and in assay [7] was over 10 µM throughout. Also, the AC50 in assay [8] was over 10 µM; in [9] it was over 10 µM; in assay [10], over 10 µM; in [11], over 30 µM; in [12], over 10 µM; in assay [13], over 10 µM.
For `CN1CCN(C2=Nc3ccccc3Sc3ccc(Cl)cc32)CC1` [CLOTHIAPINE], the AC50 in assay [1] is over 30 µM; in assay [6] it was over 30 µM; in assay [7], over 30 µM; in [10], 2.1 µM; in [11], over 30 µM.
`CCOc1ccc(Cc2cc([C@@H]3O[C@H](CO)[C@@H](O)[C@H](O)[C@H]3O)ccc2Cl)cc1` [DAPAGLIFLOZIN]: the AC50 in assay [1] was over 10 µM; in [2], over 30 µM; in [3], over 30 µM; in assay [4] it was over 30 µM; in assay [5], over 30 µM; in [8], over 30 µM. The concentration at half-maximal activity (AC50) is over 30 µM in assay [9]; over 10 µM in assay [10]; over 30 µM in assay [11]; over 30 µM in assay [12]; over 30 µM in assay [13].
With `O=[N+]([O-])O[C@@H]1CO[C@H]2[C@@H]1OC[C@@H]2O` [ISOSORBIDE MONONITRATE], the AC50 in [1] was over 10 µM; in assay [2], over 10 µM; in assay [3] it was over 30 µM; in [4], over 30 µM; in assay [5], over 30 µM; in assay [7], over 10 µM. Moreover, the AC50 was over 30 µM in [8]; over 10 µM in assay [9]; over 10 µM in assay [10]; over 30 µM in assay [11]; over 30 µM in assay [12]; over 30 µM in assay [13].
For the compound `Cc1cc(C)c(NC(=O)CN(CC(=O)O)CC(=O)O)c(C)c1Br` [MEBROFENIN], the AC50 in [1], in [6], in [7], in assay [10] and in assay [11] was over 30 µM in each case.
Consider `COc1ccccc1N1CCN(CC(O)COc2cccc3ccccc23)CC1` (configuration not stated) [NAFTOPIDIL], for which the AC50 in [1] is over 30 µM; in assay [2] it was 9.6 µM; in assay [6] it was over 30 µM; in [7], 1.3 µM; in [10], 0.2 µM; in [11], over 30 µM. The half-maximal activity concentration (AC50) in [13] is over 30 µM.
As for `COc1cc2nc(N3CCN(C(=O)c4ccco4)CC3)nc(N)c2cc1OC` [PRAZOSIN], the AC50 in [1] is over 10 µM; in [2] it was over 10 µM; in [3] it was over 30 µM; in assay [4] it was over 30 µM; in [5] it was 7.8 µM; in assay [6] it was over 30 µM. Also, the AC50 is over 30 µM in assay [8]; over 10 µM in assay [9]; over 30 µM in assay [11]; over 30 µM in [12]; over 30 µM in assay [13].
On to `O=[N+]([O-])c1cn2c(n1)OC[C@@H](OCc1ccc(OC(F)(F)F)cc1)C2` [PRETOMANID], for which the AC50 in assay [1] was over 10 µM; in [2] it was over 10 µM; in [3] it was over 30 µM; in [4] it was over 30 µM; in [5], over 30 µM; in assay [8], over 30 µM. Moreover, the AC50 was over 10 µM in [9]; over 10 µM in assay [10]; over 10 µM in [11]; over 30 µM in assay [12]; over 30 µM in assay [13].
Consider `Cc1oc(=O)oc1CN1CCN(c2cc3c(cc2F)c(=O)c(C(=O)O)c2n3C(C)S2)CC1` (configuration not stated) [PRULIFLOXACIN], for which the AC50 in assay [1], in assay [6], in assay [7], in assay [10] and in assay [11] was over 30 µM each time.
For the compound `CCCCCNC(=N)N/N=C/c1c[nH]c2ccc(OC)cc12` [TEGASEROD], the AC50 in assay [1] was 16 µM; in assay [2], 0.495 µM; in assay [3] it was 11.4 µM; in assay [4] it was over 30 µM; in assay [5] it was 1.8 µM; in [7] it was over 30 µM. Also, the AC50 in assay [8] was 20.3 µM; in [9], 21.3 µM; in [10], 0.771 µM; in assay [11] it was 19 µM; in [12], over 30 µM; in [13] it was 15.3 µM.
`COC1=C(OC)C(=O)C(C/C=C(\C)CC/C=C(\C)CC/C=C(\C)CC/C=C(\C)CC/C=C(\C)CC/C=C(\C)CC/C=C(\C)CC/C=C(\C)CC/C=C(\C)CCC=C(C)C)=C(C)C1=O` [UBIDECARENONE]: the AC50 in [1], in [6], in assay [7], in [10] and in [11] was over 30 µM each time.

(Values after ChEMBL document CHEMBL5291721, “A preclinical secondary pharmacology resource illuminates target-adverse drug reaction associations of marketed drugs” (Nat Commun, 2023).)
